Reference: patent US20040171073A1, “Compounds for modulation of cholesterol transport” (Massachusetts Institute of Technology, priority 2002, published 2004)
Entries after “also recorded” stand apart in the source; their conditions may differ.

How the values were obtained:
[1] = target: T1, murine SR-BI (Mus musculus, UniProt Q61009); experiment: Uptake of [3H]cholesteryl ether from [3H]CE-HDL by ldlA[mSR-BI] cells; type: cell-based
T1 construct: expressed in transfected cells; host or cells: ldlA-7 (LDL receptor deficient Chinese hamster ovary cells)
T1 sequence (Q61009 1-509): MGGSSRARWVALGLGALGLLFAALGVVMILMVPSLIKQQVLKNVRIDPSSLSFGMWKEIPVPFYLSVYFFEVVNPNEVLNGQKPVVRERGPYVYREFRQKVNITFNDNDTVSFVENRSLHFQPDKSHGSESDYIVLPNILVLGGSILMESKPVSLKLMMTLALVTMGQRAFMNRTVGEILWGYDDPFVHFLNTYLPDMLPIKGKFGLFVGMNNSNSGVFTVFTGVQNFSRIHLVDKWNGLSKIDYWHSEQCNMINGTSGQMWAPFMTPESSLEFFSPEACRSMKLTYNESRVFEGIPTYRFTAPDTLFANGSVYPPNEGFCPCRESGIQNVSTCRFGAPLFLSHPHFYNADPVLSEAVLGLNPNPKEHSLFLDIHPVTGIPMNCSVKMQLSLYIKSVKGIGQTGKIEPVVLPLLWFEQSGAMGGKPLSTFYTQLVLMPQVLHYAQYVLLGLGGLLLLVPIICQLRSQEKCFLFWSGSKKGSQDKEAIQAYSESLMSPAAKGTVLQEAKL
Method: (§1) Cells were pre-incubated with BLTs for 1 hr (or 2.5 hrs for transferrin, EGF and cholera toxin uptake experiments) and all the experiments were performed at 37° C. Detailed characterization of the BLTs and their effects was performed with compounds whose identities and purities were confirmed by LC-MS.
(§2) Assays for the uptake of lipids from DiI-HDL and [^3]CE-HDL, efflux of [^3H]cholesterol from labeled cells, and ^125I-HDL binding were performed as described by Acton et al. Science (1996) January 26;271(5248):518-20; Gu, et al. J Biol. Chem. (2000) September 29;275(39):29993-30001; and Ji, et al., J. Biol. Chem. (1997) 272, 20982-5. In some experiments, values were normalized so that the 100% of control represents activity in the absence of compounds and 0% represents activity determined in the presence of a 40-fold excess of unlabeled HDL or, for Y1-BS1 cells, in the presence of a 1:500 dilution of the KKB-1 blocking antibody (Gu, et al., 2000, generous gift from Karen Kozarsky). The amounts of cell-associated [^3H]cholesteryl ether are expressed as the equivalent amount of [^3H]CE-HDL protein (ng) to permit direct comparison of the relative amounts of ^125I-HDL binding and [^3H]CE uptake.

[2] = test system: HeLa cells; experiment: Receptor mediated endocytosis of labeled transferrin and EGF, fluorescence microscopy; type: cell-based; details: BLTs at ICCE95, 50 micromolar BLT-1, 3 hrs
[3] = target: T1, murine SR-BI; experiment: Uptake of DiI from DiI-HDL by ldlA[mSR-BI] cells (high throughput screen and concentration dependence); type: cell-based
[4] = test system: BSC-1 cells; type: cell-based, monkey
[5] = target: T1, murine SR-BI; experiment: 125I-HDL binding to ldlA[mSR-BI] cells
Method: as §1, §2
It was initially expected that the BLTs would function by inhibiting HDL binding to SR-BI. However, when cells were incubated with a sub-saturating concentration of either [^3H]CE-HDL or ^125I-labeled HDL (^125I-HDL) (10 μg protein/ml) and increasing amounts of compound (FIG. 5), the decreases in [^3H]CE uptake (solid lines, no symbols, data from FIG. 2B) and [3H]cholesterol efflux (dashed lines, data from FIG. 2C) were accompanied by corresponding increases in ^125I-HDL binding (solid lines, square symbols). The concentration dependence of ^125I-HDL binding was determined in the presence or absence of BLTs at their ICCE95 concentrations (FIG. 6 and Table II).

[6] = test system: ldlA[mSR-BI] cells; experiment: Distribution of actin and tubulin networks, fluorescence microscopy; type: cell-based, Chinese hamster; details: BLTs at ICCE95; 50 micromolar BLT-1, 3 hrs
[7] = target: T1, murine SR-BI; experiment: Rate of 125I-HDL dissociation from cells; details: dissociation of 125I-HDL from ldlA[mSR-BI] cells in presence of BLT; no BLT control 0.11; n=2; read-out: (B) Binding Parameters Koff (converted)
Method: The rates of HDL dissociation from cells were determined by incubation of the cells with ^125I-HDL (10 μg protein/ml, 2 hrs, 37° C.) with and without BLTs. The medium was then either replaced with the same medium in which the ^125I-HDL was substituted by a 40-fold excess of unlabeled HDL or a 40-fold excess of unlabeled HDL was added to the labeled incubation medium. The amounts of cell-associated ^125I-HDL were then determined as a function of time. The two methods gave similar results.

[8] = target: T2, SR-BI (Mus musculus, UniProt Q61009); experiment: Uptake of [3H]CE from [3H]CE-HDL by Y1-BS1 adrenocortical cells; type: cell-based, murine; details: inhibition, n=2, read-out: (A) EC50 [^3H]CEt HDL uptake (Y1-BS1 cells)
T2 construct: endogenous in cells; host or cells: Y1-BS1 murine adrenocortical cells (ACTH induced)
T2 sequence (Q61009 1-509): T1 sequence (Q61009 1-509)
Text: Biol. Chem. 273, 26338-48; Gu, et al. (2000) J. Biol. Chem. 275, 29993-30001; Acton, et al. (1994) J. Biol. Chem. 269, 21003-9; Pitas, et al. (1981) Arteriosclerosis 1, 177-85). LDL receptor deficient Chinese hamster ovary cells that express low levels of endogenous SR-BI, ldlA-7 (Kingsley, et al. (1984) Proc. Nat. Acad. Sci. USA 81, 5454-8), ldlA-7 cells stably transfected to express high levels of murine SR-BI (ldlA[mSR-BI])(Acton, et al., 1996), Y1-BS1 murine adrenocortical cells that express high levels of SR-BI after induction with ACTH (Rigotti, et al. (1996) J. Biol. Chem. 271, 33545-9), monkey kidney BS-C1 cells (Kapoor, et al. (2000) Journal of Cell Biology 150, 975-88) and HeLa cells (Temel, et al. (2002) J Biol Chem 8, 8) were maintained as previously described.
as §1, §2

[9] = target: T1, murine SR-BI; experiment: Efflux of [3H]cholesterol from ldlA[mSR-BI] cells to HDL; type: cell-based; details: inhibition of efflux to HDL, mean ± SD, n=3
Method: as §1, §2
In addition to mediating selective lipid uptake from HDL, SR-BI can facilitate the efflux of unesterified cholesterol from cells to HDL particles (Jian, et al. (1998) J Biol Chem 273, 5599-606. Ji, et al. (1997) J. Biol. Chem. 272, 20982-5). To determine if the BLTs could inhibit this SR-BI-mediated lipid transport activity, cells were labeled with [^3H]cholesterol and its efflux to unlabeled HDL measured in the presence or absence of the BLTs. (FIG. 2C, table II). Cells were incubated for 3 hrs in the absence (top panels) or presence (bottom panels) of 50 micromolar BLT-1 (MIT 9952-53) and epifluorescence light microscopy was used to monitor the following cellular activities: clathrin-dependent endocytosis of fluorescently labeled transferrin (A,B; HeLa cells) and EGF (C,D; HeLa cells); clathrin-independent endocytosis of fluorescently labeled cholera toxin (E, F; BSC-1 cells), and transport of the temperature sensitive fluorescent membrane protein VSVG^ts045-EGFP from the ER to the cell surface (G,H; BSC-1 cells). In addition, the intracellular distributions of the actin cytoskeleton (visualized with rhodamine labeled phalloidin, I,J; ldlA-[mSRBI] cells) and the tubulin network (visualized with fluorescently labeled antibodies specific to y-tubulin, K,L; BSC-1 cells) were determined. BLT-1 (MIT 9952-53) and the other BLTs (not shown) had no effects on any of these cellular properties or activities.

[10] = test system: BSC-1 cells; type: cell-based, monkey; details: BLTs at ICCE95, 50 micromolar BLT-1, 3 hrs

CCCCCCC1CCC/C1=N\NC(N)=S (stereo not shown) [MIT 9952-53]
ICCE95 concentration (inhibits [3H]CE uptake by 95%) [1]: 1 µM | EC50 ([1]; inhibition, mean ± SD, n=6 (n=5 where footnoted), read-out: (A) EC50 [^3H]CEt HDL uptake): 110 ± 80 nM | Uptake and intracellular distribution of labeled transferrin and EGF (clathrin-dependent endocytosis) [2]: no effects | ENDOHDL Test 1 ([3]; Test 1): 0.53 | ENDOHDL Test 2 ([3]; Test 2): 0.46 | EC50 ([3]; ldlA[mSR-BI] cells, inhibition, mean ± SD, n=3): 60 ± 40 nM | Inhibition of SR-BI-mediated lipid transport / DiI uptake, concentration range in words ([3]; ldlA[mSR-BI] cells, listed as BLT-1): low nanomolar concentration range; also recorded: inhibited in the nanomolar range | Secretory pathway: transport of VSVGts045-EGFP from ER to cell surface [4]: no effects | (B) Binding Parameters Bmax ([5]; 125I-HDL binding sites in presence of BLT at its ICCE95, no BLT control 100.0 ± 18.4): 95.8 ± 10.1% | Effect on HDL binding to SR-BI ([5]; ldlA[mSR-BI] cells): enhanced | EC50 ([5]; ldlA[mSR-BI] cells, enhancement of HDL binding, 10 μg protein/ml HDL, mean ± SD, n=3, read-out: (A) EC50 ^1nI-HDL binding): 88 ± 50 nM | Integrity/distribution of actin and tubulin networks [6]: no effects | koff [7]: 0.001 s⁻¹ | EC50 [8]: 380 nM | EC50 [9]: 150 ± 90 nM | Uptake of labeled cholera toxin (clathrin-independent endocytosis) [10]: no effects
